Test results published in patent US20170021023A1 (RESDEVCO RESEARCH AND DEVELOPMENT CO. LTD., priority 2005, published 2017).

Tests used:
epithelial conical cells = assay: Rabbit eye drop treatment for 3 months, electron microscopy of epithelial cells; format: in vivo, rabbits; conditions: preservatives such as benzalkonium chloride, cetrimonium bromide, sodium ethylene diamine tetraacetate
Protocol: 3 rabbits were treated for 3 months twice daily with eye drops, adjusted to pH 7.0. The average cross section of the epithelial conical cells and the percentage of damaged cells were evaluated by electron microscopy.

dry eye patients = assay: Fluorescein Break Up Time (BUT) study in dry eye patients; format: in vivo, human; conditions: concentration of 0.002%
From the text: The advantages resulting from the addition of a surface active agent include a decrease in the surface tension of the aqueous solution, thereby increasing the spread. […] It is accepted that a BUT of 10 sec. or less indicates dry eye syndrome; see Example 11 below.

For OCC(O)CO [glycerol], which “Effect on conical cell damage caused by preservatives” value (epithelial conical cells) is on record?
The value was “counteracts conical cell damage”.

For polysorbate 80, which “Effect on diminished Break Up Time (BUT)” value (dry eye patients) is on record?
Its value is “increases the diminished Break Up Time (BUT)”.
